According to the Deep4Chem optical property database:
One block for each compound: values may come before it.

Experiment: photoluminescence quantum yield (fraction); solvent given as SMILES

photoluminescence quantum yield (in ClC(Cl)Cl): 0.19
SMILES: CCCCc1ccc(-n2c3c4cc(F)ccc4nc(-c4ccc(OC)cc4)c3c3c2c2c(-c4ccc(OC)cc4)nc4ccc(F)cc4c2n3-c2ccc(CCCC)cc2)cc1

photoluminescence quantum yield (in ClCCl): 0.35
SMILES: CCCCCCN1C(=O)c2cccc3c(-c4ccc(-c5cc(-c6ccccc6)n(-c6ccccc6)n5)s4)ccc(c23)C1=O

photoluminescence quantum yield (in ClCCl): 0.17
SMILES: FC(F)(F)c1ccc(-c2ccc(-c3cc(-c4ccccn4)nc(-c4ccccn4)c3)cc2)cc1

photoluminescence quantum yield (in CS(C)=O): 0.57
SMILES: COc1ccc(-c2cc(/C=C/c3ccc(N(c4ccccc4)c4ccccc4)cc3)c(C#N)c(N3CCCCC3)c2)cc1

photoluminescence quantum yield (in ClCCl): 0.02
SMILES: Cc1c(C(=O)c2ccccc2)c2ccc3cccc4c5cccc6ccc1c(c65)c2c34

photoluminescence quantum yield (in ClC(Cl)Cl): 0.52
SMILES: CCCCn1c(=O)c2cc3ccc4cccc5ccc(c2c1=O)c3c45

SMILES: Cc1cc(-c2nnc(-c3c(C(C)C)cc(C(C)C)cc3C(C)C)o2)ccc1-n1c2ccccc2c2ccccc21
photoluminescence quantum yield (in Cc1ccccc1): 0.38

SMILES: COc1ccc(C2=C3C=c4c(oc5cc6c(cc45)[C@H]4CC[C@]5(C)C(=O)CC[C@H]5[C@@H]4CC6)=[N+]3[B-](F)(F)n3c2cc2c4cc5c(cc4oc23)CC[C@@H]2[C@@H]5CC[C@]3(C)C(=O)CC[C@@H]23)cc1
photoluminescence quantum yield (in CCOC(C)=O): 0.61 | photoluminescence quantum yield (in CCOCC): 0.88 | photoluminescence quantum yield (in CO): 0.52

photoluminescence quantum yield (in C1CCOC1): 0.11
SMILES: F[Si](c1ccccc1)(c1ccccc1)c1cc2ccccc2c2ccccc12

photoluminescence quantum yield (in CCO): 0.12 | photoluminescence quantum yield (in CO): 0.06 | photoluminescence quantum yield (in CS(C)=O): 0.24
SMILES: CN1/C(=C/C=C(/C=C/c2sc3ccccc3[n+]2C)c2cccc(C(F)(F)F)c2)Sc2ccccc21

photoluminescence quantum yield (in C1CCOC1): 0.216
SMILES: O=c1oc2cccc3c4cccc5ccc6c7cc(F)ccc7c1c(c23)c6c54

photoluminescence quantum yield (in ClC(Cl)Cl): 0.017
SMILES: C=C[Si](c1c2ccccc2cc2ccccc12)(c1c2ccccc2cc2ccccc12)c1c2ccccc2cc2ccccc12

photoluminescence quantum yield (in CCO): 0.049 | photoluminescence quantum yield (in CS(C)=O): 0.023 | photoluminescence quantum yield (in O): 0.007
SMILES: CC1(C)C(/C=C/c2cc3ccc(O)cc3oc2=O)=[N+](CCCS(=O)(=O)[O-])c2ccccc21

SMILES: CC1(C)c2ccccc2-n2c(-c3ccc(-n4c5ccccc5c5ccccc54)cc3)nc3cccc1c32
photoluminescence quantum yield (in Cc1ccccc1): 0.99 | photoluminescence quantum yield (in O=P(c1ccccc1)(c1ccccc1)c1ccccc1Oc1ccccc1P(=O)(c1ccccc1)c1ccccc1): 0.85

photoluminescence quantum yield (in C1CCOC1): 0.02
SMILES: COC(=O)c1ccc(-c2ccc3c(c2)C(=O)c2cc(-c4ccc(C(=O)OC)cc4)ccc2-3)cc1

SMILES: COc1ccc(/C=C/c2ccccc2)cc1OC
photoluminescence quantum yield (in C1CCCCC1): 0.06 | photoluminescence quantum yield (in CC#N): 0.035 | photoluminescence quantum yield (in CC(C)O): 0.041 | photoluminescence quantum yield (in CCCCOCCCC): 0.05 | photoluminescence quantum yield (in CCOC(C)=O): 0.046 | photoluminescence quantum yield (in CCOCC): 0.051

photoluminescence quantum yield (in CC#N): 0.134 | photoluminescence quantum yield (in CCCCCC): 0.418 | photoluminescence quantum yield (in CO): 0.0206 | photoluminescence quantum yield (in ClC(Cl)Cl): 0.214
SMILES: c1ccc2c(-c3cc(-c4nccs4)nc(-c4nccs4)c3)c3ccccc3cc2c1

photoluminescence quantum yield (in ClC(Cl)Cl): 0.156
SMILES: CC[Si](C)(C)c1cc2ccc3cccc4ccc(c1C(=O)NC(C)(C)C)c2c34

photoluminescence quantum yield (in ClCCl): 0.38
SMILES: CCCCN(CCCC)c1ccc(C#Cc2cc(C#Cc3ccc(N(CCCC)CCCC)cc3)c(C#Cc3ccc(C(F)(F)F)cc3)cc2C#Cc2ccc(C(F)(F)F)cc2)cc1

photoluminescence quantum yield (in C1CCOC1): 0.0681 | photoluminescence quantum yield (in CC#N): 0.00119 | photoluminescence quantum yield (in CCOC(C)=O): 0.0842 | photoluminescence quantum yield (in CS(C)=O): 0.00124 | photoluminescence quantum yield (in ClC(Cl)Cl): 0.0946
SMILES: N#Cc1cc2ccccc2oc1=N

photoluminescence quantum yield (in ClCCl): 0.14
SMILES: COc1ccc(-c2ccc(/C=C/c3ccncn3)cc2)cc1

photoluminescence quantum yield (in C1COCCO1): 0.85
SMILES: CCC(C)(C)c1ccc(-c2ccc(-c3ccc(C(C)(C)CC)cc3)cc2)cc1

photoluminescence quantum yield (in C1CCOC1): 0.67
SMILES: Cc1ccc(C2=C3C=C4C(=[N+]3[B-](F)(F)n3c2cc2c3-c3ccccc3C23c2ccccc2-c2ccccc23)c2ccccc2C42c3ccccc3-c3ccccc32)cc1

SMILES: c1ccc(-c2nc(-c3ccccc3)nc(-c3ccc(-n4c5ccccc5c5c4c4ccccc4n5-c4ccccc4)cc3)n2)cc1
photoluminescence quantum yield (in Cc1ccccc1): 0.445

photoluminescence quantum yield (in CC#N): 0.27 | photoluminescence quantum yield (in CCCCCC): 0.11
SMILES: Cc1ccc(C)n1-c1ccc(N(C)C)cc1
